Consider 36 compounds from patent US9670212B2, “Inhibitors of PI3K-delta and methods of their use and manufacture” (Exelixis, Inc., priority 2010, dated 2017).

Some results are limits rather than exact numbers.

Chain of PI3K delta (O00329 whole entry): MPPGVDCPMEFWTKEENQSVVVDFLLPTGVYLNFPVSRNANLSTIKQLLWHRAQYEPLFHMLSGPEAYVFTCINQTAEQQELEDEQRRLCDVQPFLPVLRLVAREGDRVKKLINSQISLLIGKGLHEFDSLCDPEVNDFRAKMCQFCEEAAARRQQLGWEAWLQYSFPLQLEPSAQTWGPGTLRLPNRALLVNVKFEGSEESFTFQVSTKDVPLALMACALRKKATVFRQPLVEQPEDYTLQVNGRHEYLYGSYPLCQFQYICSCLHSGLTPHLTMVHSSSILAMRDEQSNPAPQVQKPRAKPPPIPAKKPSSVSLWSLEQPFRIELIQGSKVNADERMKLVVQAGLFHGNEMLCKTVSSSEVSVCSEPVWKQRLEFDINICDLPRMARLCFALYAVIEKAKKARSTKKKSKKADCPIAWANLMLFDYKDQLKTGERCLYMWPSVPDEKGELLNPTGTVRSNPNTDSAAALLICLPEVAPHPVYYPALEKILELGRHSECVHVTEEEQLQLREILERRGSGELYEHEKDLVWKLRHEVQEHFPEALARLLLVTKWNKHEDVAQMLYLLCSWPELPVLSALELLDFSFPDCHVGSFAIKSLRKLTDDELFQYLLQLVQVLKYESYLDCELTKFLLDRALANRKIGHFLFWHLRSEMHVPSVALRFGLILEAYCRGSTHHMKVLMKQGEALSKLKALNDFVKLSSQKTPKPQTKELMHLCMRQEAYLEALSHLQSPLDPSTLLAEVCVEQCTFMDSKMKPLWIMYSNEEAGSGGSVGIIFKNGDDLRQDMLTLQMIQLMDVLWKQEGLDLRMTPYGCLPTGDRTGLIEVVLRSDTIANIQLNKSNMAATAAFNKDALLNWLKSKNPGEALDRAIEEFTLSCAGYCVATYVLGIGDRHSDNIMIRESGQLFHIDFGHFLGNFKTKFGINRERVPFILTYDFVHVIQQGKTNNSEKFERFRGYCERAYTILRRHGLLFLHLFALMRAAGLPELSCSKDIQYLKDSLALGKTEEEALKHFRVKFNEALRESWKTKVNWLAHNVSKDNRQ
Chain of PI3K delta (P27986 whole entry partner): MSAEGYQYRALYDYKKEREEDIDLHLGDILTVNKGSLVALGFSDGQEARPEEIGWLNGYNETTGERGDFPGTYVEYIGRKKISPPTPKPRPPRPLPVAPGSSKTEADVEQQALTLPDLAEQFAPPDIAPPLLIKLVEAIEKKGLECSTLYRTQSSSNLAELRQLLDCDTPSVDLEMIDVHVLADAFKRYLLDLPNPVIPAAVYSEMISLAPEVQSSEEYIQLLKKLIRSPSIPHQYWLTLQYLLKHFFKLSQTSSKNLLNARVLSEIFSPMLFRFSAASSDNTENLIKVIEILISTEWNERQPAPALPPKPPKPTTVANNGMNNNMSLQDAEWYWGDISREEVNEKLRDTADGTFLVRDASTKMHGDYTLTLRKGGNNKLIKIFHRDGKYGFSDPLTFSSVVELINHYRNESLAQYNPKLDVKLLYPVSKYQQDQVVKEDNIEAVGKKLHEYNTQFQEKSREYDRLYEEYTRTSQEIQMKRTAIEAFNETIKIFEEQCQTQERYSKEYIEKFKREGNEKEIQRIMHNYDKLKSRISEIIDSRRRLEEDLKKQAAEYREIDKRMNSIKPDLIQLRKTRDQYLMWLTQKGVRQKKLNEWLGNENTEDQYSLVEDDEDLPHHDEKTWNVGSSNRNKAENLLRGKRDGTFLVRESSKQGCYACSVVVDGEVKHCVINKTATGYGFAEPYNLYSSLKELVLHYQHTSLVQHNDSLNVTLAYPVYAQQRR

For this experiment, the target named is PI3K delta (Homo sapiens (Human), UniProt O00329). Briefly: Luciferase-coupled chemiluminescence kinase assay (KinaseGlo, ATP consumption). It is filed as biochemical. The gist of the method:
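Kinase, compound and ATP (at or below KM) reacted 2 h at ambient temperature; remaining ATP detected by KinaseGlo luciferase chemiluminescence as percent ATP consumed. 10-point dose-response, curves fitted to give IC50.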
In the case of `Cc1cccc(-c2nc3c(C)cccc3cc2Cn2cnc3c(N)ncnc32)c1C` [Compound 180, 9-{[2-(2,3-dimethylphenyl)-8-methylquinolin-3-yl]methyl}-9H-purin-6-amine], the IC50 was 500 to 1500 nM.
The value for `CC(=O)N1CCN(c2nc3c(C)cccc3cc2CNc2ncnc3[nH]cnc23)CC1` [Compound 143, N-{[2-(4-acetylpiperazin-1-yl)-8-methylquinolin-3-yl]methyl}-9H-purin-6-amine] was less than 50 nM.
Consider `Cc1cccc2cc(CNC(=O)c3nccnc3N)c(N(C)CCN(C)C)nc12` [Compound 128, 3-amino-N-[(2-{[2-(dimethylamino)ethyl](methyl)amino}-8-methylquinolin-3-yl)methyl]pyrazine-2-carboxamide], for which the half-maximal inhibitory concentration (IC50) was less than 50 nM.
`Cc1ccccc1-c1cc2ccccc2nc1CNc1ncnc2[nH]nc(Br)c12` [Compound 141, 3-bromo-N-{[3-(2-methylphenyl)quinolin-2-yl]methyl}-1H-pyrazolo[3,4-d]primidin-4-amine] had an IC50 of 500 to 1500 nM.
`Cc1cccc2cc(CNC(=O)c3nccnc3N)c(N3CCC(NCC(=O)N(C)C)C3)nc12` (stereo not drawn) [Compound 44, 3-amino-N-{[2-(3-{[2-(dimethylamino)-2-oxoethyl]amino}pyrrolidin-1-yl)-8-methylquinolin-3-yl]methyl}pyrazine-2-carboxamide] had an IC50 of 500 to 1500 nM.
With `Cc1cccc2cc(CNc3ncnc4[nH]cnc34)c(-c3ccccc3Cl)nc12` [Compound 154, N-{[2-(2-chlorophenyl)-8-methylquinolin-3-yl]methyl}-9H-purin-6-amine], the IC50 was less than 50 nM.
As for `Nc1nccnc1C(=O)NCc1nc2ccccc2cc1-c1ccccc1CN1CCOCC1` [Compound 70, 3-amino-N-({3-[2-(morpholin-4-ylmethyl)phenyl]quinolin-2-yl}methyl)pyrazine-2-carboxamide], the IC50 is 250 to 500 nM.
Regarding `Cc1cccc2cc(CNC(=O)c3nccnc3N)c(-n3cnc4ccccc43)nc12` [Compound 112, 3-amino-N-{[2-(1H-benzimidazol-1-yl)-8-methylquinolin-3-yl]methyl}pyrazine-2-carboxamide], the IC50 is 500 to 1500 nM.
Turning to `Cc1cccc2cc(CNC(=O)c3nccnc3N)c(N3CCCN(C(=O)Cn4cnc5ccccc54)CC3)nc12` [Compound 53, 3-amino-N-({2-[4-(1H-benzimidazol-1-ylacetyl)-1,4-diazepan-1-yl]-8-methylquinolin-3-yl}methyl)pyrazine-2-carboxamide], the IC50 lay in the range of 500 to 1500 nM.
For the compound `Cc1cccc2cc(CNC(=O)c3nccnc3N)c(N(C)CCCN(C)C(=O)CN(C)C)nc12` [Compound 136, 3-amino-N-({2-[{3-[(N,N-dimethylglycyl)(methyl)amino]propyl}(methyl)amino]-8-methylquinolin-3-yl}methyl)pyrazine-2-carboxamide], the IC50 was less than 50 nM.
The value for `Cc1cccc2cc(CNC(=O)c3nccnc3N)c(N(C)CCN(C)S(C)(=O)=O)nc12` [Compound 101, 3-amino-N-{[8-methyl-2-(methyl{2-[methyl(methylsulfonyl)amino]ethyl}amino)quinolin-3-yl]methyl}pyrazine-2-carboxamide] was 50 to 250 nM; that for `Cc1cccc2cc(CNC(=O)c3nccnc3N)c(N3CCCNCC3)nc12` [Compound 139, 3-amino-N-{[2-(1,4-diazepan-1-yl)-8-methylquinolin-3-yl]methyl}pyrazine-2-carboxamide] was 250 to 500 nM.
The result for `CC(=O)N1CCN(c2nc3c(C)cccc3cc2CNC(=O)c2nccnc2N)CC1` [Compound 124, N-{[2-(4-acetylpiperazin-1-yl)-8-methylquinolin-3-yl]methyl}-3-aminopyrazine-2-carboxamide] reads 250 to 500 nM; that for `Cc1ccccc1-c1c(Cn2cnc3ncnc(N)c32)nc2ccccc2c1C` [Compound 169, 7-{[4-methyl-3-(2-methylphenyl)quinolin-2-yl]methyl}-7H-purin-6-amine], 500 to 1500 nM; that for `Cc1ccccc1-c1cc2ccccc2cc1Cn1cnc2c(N)ncnc21` [Compound 120, 9-{[3-(2-methylphenyl)naphthalen-2-yl]methyl}-9H-purin-6-amine], 500 to 1500 nM.
In turn, `Cc1cccc2cc(CNC(=O)c3nccnc3N)c(N(C)CCN(C)C(=O)[C@H]3CCCN3)nc12` [Compound 102, 3-amino-N-{[8-methyl-2-(methyl{2-[methyl(D-prolyl)amino]ethyl}amino)quinolin-3-yl]methyl}pyrazine-2-carboxamide] yielded an IC50 of 50 to 250 nM.
Turning to `Cc1cccc2cc(CNC(=O)c3nccnc3N)c(N(C)C3CCN(C)CC3)nc12` [Compound 99, 3-amino-N-({8-methyl-2-[methyl(1-methylpiperidin-4-yl)amino]quinolin-3-yl}methyl)pyrazine-2-carboxamide], the IC50 was 50 to 250 nM.
`Cc1cccc2cc(CNC(=O)c3nccnc3N)c(N(C)CCN(C)C(=O)Cn3nccn3)nc12` [Compound 94, 3-amino-N-{[8-methyl-2-(methyl{2-[methyl(2H-1,2,3-triazol-2-ylacetyl)amino]ethyl}amino)quinolin-3-yl]methyl}pyrazine-2-carboxamide] yielded an IC50 of 50 to 250 nM.
For the compound `Cc1cccc2cc(CNC(=O)c3nccnc3N)c(N(C)CC3CCN(C)CC3)nc12` [Compound 31, 3-amino-N-[(8-methyl-2-{methyl[(1-methylpiperidin-4-yl)methyl]amino}quinolin-3-yl)methyl]pyrazine-2-carboxamide], the IC50 is less than 50 nM.
Consider `Cc1ccccc1-n1c(CNC(=O)c2nccnc2N)nc2cccc(C)c2c1=O` [Compound 175, 3-amino-N-{[5-methyl-3-(2-methylphenyl)-4-oxo-3,4-dihydroquinazolin-2-yl]methyl}pyrazine-2-carboxamide], for which the IC50 is less than 50 nM.
The value for `CNCCN(C)c1nc2c(C)cccc2cc1COc1ccc(OC)cc1` [Compound 23, N,N′-dimethyl-N-[8-methyl-3-({[4-(methyloxy)phenyl]oxy}methyl)quinolin-2-yl]ethane-1,2-diamine] was 500 to 1500 nM; that for `Cc1ccccc1-c1cc2c(C)cccc2nc1CNC(=O)c1nccnc1N` [Compound 118, 3-amino-N-{[5-methyl-3-(2-methylphenyl)quinolin-2-yl]methyl}pyrazine-2-carboxamide] was 250 to 500 nM.
As for `CNCCN(C)c1nc2c(C)cccc2cc1CNc1ccc(OC)cc1` [Compound 20, N,N′-dimethyl-N-[8-methyl-3-({[4-(methyloxy)phenyl]amino}methyl)quinolin-2-yl]ethane-1,2-diamine], the IC50 was in the range of 500 to 1500 nM.
The compound `Cc1cccc2cc(CNC(=O)c3nccnc3N)c(N(C)CCc3ccccn3)nc12` [Compound 88, 3-amino-N-({8-methyl-2-[methyl(2-pyridin-2-ylethyl)amino]quinolin-3-yl}methyl)pyrazine-2-carboxamide] had a half-inhibitory concentration (IC50) of 500 to 1500 nM.
For `Cc1ccccc1-n1c(CNC(=O)c2nccnc2Cl)nc2cccc(C)c2c1=O` [Compound 159, 3-chloro-N-{[5-methyl-3-(2-methylphenyl)-4-oxo-3,4-dihydroquinazolin-2-yl]methyl}pyrazine-2-carboxamide], the IC50 lay in the range of 500 to 1500 nM.
The result for `CNCC(=O)N(C)CCN(C)c1nc2c(C)cccc2cc1CNC(=O)c1nccnc1N` [Compound 116, 3-amino-N-{[8-methyl-2-(methyl{2-[methyl(N-methylglycyl)amino]ethyl}amino)quinolin-3-yl]methyl}pyrazine-2-carboxamide] reads 50 to 250 nM; that for `CNCCN(C)c1nc2c(C)cccc2cc1CNC(=O)c1nccnc1N` [Compound 130, 3-amino-N-[(8-methyl-2-{methyl[2-(methylamino)ethyl]amino}quinolin-3-yl)methyl]pyrazine-2-carboxamide], 250 to 500 nM.
Compound `Cc1ccccc1-c1cc2c(C)cccc2nc1Cn1nc(I)c2c(N)ncnc21` [Compound 119, 3-iodo-1-{[5-methyl-3-(2-methylphenyl)quinolin-2-yl]methyl}-1H-pyrazolo[3,4-d]pyrimidin-4-amine] registered an IC50 of less than 50 nM.
For `Cc1cccc2cc(CNC(=O)c3nccnc3N)c(N(C)CCN(C)C(=O)[C@@H]3CCCN3C)nc12` [Compound 113, 3-amino-N-{[8-methyl-2-(methyl{2-[methyl(1-methyl-L-prolyl)amino]ethyl}amino)quinolin-3-yl]methyl}pyrazine-2-carboxamide], the IC50 was 50 to 250 nM.
In turn, `COCCNc1nc2c(C)cccc2cc1Cn1cnc2c(N)ncnc21` [Compound 167, 3-[(6-amino-9H-purin-9-yl)methyl]-8-methyl-N-[2-(methyloyx)ethyl]quinolin-2-amine] came in with an IC50 of 500 to 1500 nM.
In turn, `Cc1cccc2cc(CNC(=O)c3nccnc3N)c(NCCO)nc12` [Compound 125, 3-amino-N-({2-[(2-hydroxyethyl)amino]-8-methylquinoin-3-yl}methyl)pyrazine-2-carboxamide] showed an IC50 of 500 to 1500 nM.
Compound `COc1ccc(OC(C)c2cc3cccc(C)c3nc2-c2ccccc2Cl)cc1` (stereo not drawn) [Compound 17, 2-(2-chlorophenyl)-8-methyl-3-(1-{[4-(methyloxy)phenyl]oxy}ethyl)quinoline] returned an IC50 of 500 to 1500 nM.
The value for `Cc1cccc2cc(Cn3cnc4c(N)ncnc43)c(NC3CCN(C)CC3)nc12` [Compound 164, 3-[(6-amino-9H-purin-9-yl)methyl]-8-methyl-N-(1-methylpiperidin-4-yl)quinolin-2-amine] was 500 to 1500 nM.
`Cc1cccc2nc(CNC(=O)c3nccnc3N)c(-c3ccccc3CN(C)C)cc12` [Compound 52, 3-amino-N-[(3-{2-[(dimethylamino)methyl]phenyl}-5-methylquinolin-2-yl)methyl]pyrazine-2-carboxamide] came in with an IC50 of less than 50 nM.
For `CNCCCN(C)c1nc2c(C)cccc2cc1CNC(=O)c1nccnc1N` [Compound 133, 3-amino-N-[(8-methyl-2-{methyl[3-(methylamino)propyl]amino}quinolin-3-yl)methyl]pyrazine-2-carboxamide], the IC50 was in the range of 50 to 250 nM.
The value for `Cc1cccc2cc(C(C)Nc3ncnc4[nH]cnc34)c(-c3ccccc3Cl)nc12` (stereo not drawn) [Compound 152, N-{1-[2-(2-chlorophenyl)-8-methylquinolin-3-yl]ethyl}-9H-purin-6-amine] was less than 50 nM.
